Test results reported in PubChem BioAssay AID2060884 (Molecular Pharmacology Branch, DTP, NCI, 2025).

Test system: NCI-H929 complex spheroids, viability % test/control
Assay: Anticancer human tumor NCI-H929 cell line growth inhibition [RAS];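 further: compound exposure lasted seven days before viability was read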;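 on viability, T/C: 100% = DMSO vehicle control viability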
Settings: for viability, T/C: stronger effect = lower value
Method in brief: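 Multi-cell-type spheroids: tumor cells plus HUVEC endothelial cells and mesenchymal stem cells. RAS-pathway inhibitors were combined with targeted agents, each dosed in half-log steps down from clinical Cmax, or from 10 microM when Cmax was unknown.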

O=C(c1ccc(F)c(F)c1Nc1ccc(I)cc1F)N1CC(O)([C@@H]2CCCCN2)C1 + C#Cc1c(F)ccc2cc(O)cc(-c3ncc4c(N5CC6CCC(C5)N6)nc(OCC56CCCN5CC(F)C6)nc4c3F)c12
IC50 (curve of first compound, second compound 0.0316 µM): > 1000 nM
IC50 (curve of first compound, second compound 0.1 µM): > 1000 nM
IC50 (curve of first compound, second compound 0.316 µM): > 1000 nM
IC50 (curve of first compound, second compound 1 µM): > 1000 nM
IC50 (curve of first compound, second compound 3.16 µM): 822 nM
IC50 (curve of first compound, second compound 10 µM): 614 nM
viability, T/C (second compound 0.0316 µM, first compound 0.00316 µM): 83.7%
viability, T/C (second compound 0.0316 µM, first compound 0.01 µM): 91.4%
viability, T/C (second compound 0.0316 µM, first compound 0.0316 µM): 84.5%
viability, T/C (second compound 0.0316 µM, first compound 0.1 µM): 91.7%
viability, T/C (second compound 0.0316 µM, first compound 0.316 µM): 113%
viability, T/C (second compound 0.0316 µM, first compound 1 µM): 60.2%
viability, T/C (second compound 0.1 µM, first compound 0.00316 µM): 96.5%
viability, T/C (second compound 0.1 µM, first compound 0.01 µM): 91.3%
viability, T/C (second compound 0.1 µM, first compound 0.0316 µM): 84.4%
viability, T/C (second compound 0.1 µM, first compound 0.1 µM): 98.7%
viability, T/C (second compound 0.1 µM, first compound 0.316 µM): 114%
viability, T/C (second compound 0.1 µM, first compound 1 µM): 60%
viability, T/C (second compound 0.316 µM, first compound 0.00316 µM): 95%
viability, T/C (second compound 0.316 µM, first compound 0.01 µM): 91%
viability, T/C (second compound 0.316 µM, first compound 0.0316 µM): 82.3%
viability, T/C (second compound 0.316 µM, first compound 0.1 µM): 95%
viability, T/C (second compound 0.316 µM, first compound 0.316 µM): 115%
viability, T/C (second compound 0.316 µM, first compound 1 µM): 54%
viability, T/C (second compound 1 µM, first compound 0.00316 µM): 90.8%
viability, T/C (second compound 1 µM, first compound 0.01 µM): 92.7%
viability, T/C (second compound 1 µM, first compound 0.0316 µM): 85.4%
viability, T/C (second compound 1 µM, first compound 0.1 µM): 93.5%
viability, T/C (second compound 1 µM, first compound 0.316 µM): 116%
viability, T/C (second compound 1 µM, first compound 1 µM): 50.6%
viability, T/C (second compound 3.16 µM, first compound 0.00316 µM): 90.2%
viability, T/C (second compound 3.16 µM, first compound 0.01 µM): 91.2%
viability, T/C (second compound 3.16 µM, first compound 0.0316 µM): 81%
viability, T/C (second compound 3.16 µM, first compound 0.1 µM): 94.5%
viability, T/C (second compound 3.16 µM, first compound 0.316 µM): 118%
viability, T/C (second compound 3.16 µM, first compound 1 µM): 40.7%
viability, T/C (second compound 10 µM, first compound 0.00316 µM): 94%
viability, T/C (second compound 10 µM, first compound 0.01 µM): 94.1%
viability, T/C (second compound 10 µM, first compound 0.0316 µM): 90.2%
viability, T/C (second compound 10 µM, first compound 0.1 µM): 95.4%
viability, T/C (second compound 10 µM, first compound 0.316 µM): 115%
viability, T/C (second compound 10 µM, first compound 1 µM): 14.8%

CCn1c(-c2cccnc2C(C)OC)c2c3cc(ccc31)N1CCOC(CC(NC(=O)C(C(C)C)N(C)C(=O)C3(F)CCN(C(=O)C#CC(C)(C)N(C)C)CC3)C(=O)N3CCCC(N3)C(=O)OCC(C)(C)C2)C1 (centres undefined)
viability, T/C (compound 0.000949 µM): 107% [middle of 8 runs]
viability, T/C (compound 0.003 µM): 106% [middle of 8 runs]
viability, T/C (compound 0.00949 µM): 106% [middle of 8 runs]
viability, T/C (compound 0.03 µM): 104% [middle of 8 runs]
viability, T/C (compound 0.0949 µM): 99.9% [middle of 8 runs]
viability, T/C (compound 0.3 µM): 98.9% [middle of 8 runs]
IC50 (compound alone, run of 08/20/2024): > 300 nM
